Molecules are shown by their SMILES.

One may read the IC50 as the point on the concentration scale where inhibition reaches its midpoint.

The target of one test is T1, α4β1 integrin (Homo sapiens, UniProt P05556+P13612).
T1 construct: endogenous in cells; host or cells: Ramos cells
T1 sequence (P13612 34-1032): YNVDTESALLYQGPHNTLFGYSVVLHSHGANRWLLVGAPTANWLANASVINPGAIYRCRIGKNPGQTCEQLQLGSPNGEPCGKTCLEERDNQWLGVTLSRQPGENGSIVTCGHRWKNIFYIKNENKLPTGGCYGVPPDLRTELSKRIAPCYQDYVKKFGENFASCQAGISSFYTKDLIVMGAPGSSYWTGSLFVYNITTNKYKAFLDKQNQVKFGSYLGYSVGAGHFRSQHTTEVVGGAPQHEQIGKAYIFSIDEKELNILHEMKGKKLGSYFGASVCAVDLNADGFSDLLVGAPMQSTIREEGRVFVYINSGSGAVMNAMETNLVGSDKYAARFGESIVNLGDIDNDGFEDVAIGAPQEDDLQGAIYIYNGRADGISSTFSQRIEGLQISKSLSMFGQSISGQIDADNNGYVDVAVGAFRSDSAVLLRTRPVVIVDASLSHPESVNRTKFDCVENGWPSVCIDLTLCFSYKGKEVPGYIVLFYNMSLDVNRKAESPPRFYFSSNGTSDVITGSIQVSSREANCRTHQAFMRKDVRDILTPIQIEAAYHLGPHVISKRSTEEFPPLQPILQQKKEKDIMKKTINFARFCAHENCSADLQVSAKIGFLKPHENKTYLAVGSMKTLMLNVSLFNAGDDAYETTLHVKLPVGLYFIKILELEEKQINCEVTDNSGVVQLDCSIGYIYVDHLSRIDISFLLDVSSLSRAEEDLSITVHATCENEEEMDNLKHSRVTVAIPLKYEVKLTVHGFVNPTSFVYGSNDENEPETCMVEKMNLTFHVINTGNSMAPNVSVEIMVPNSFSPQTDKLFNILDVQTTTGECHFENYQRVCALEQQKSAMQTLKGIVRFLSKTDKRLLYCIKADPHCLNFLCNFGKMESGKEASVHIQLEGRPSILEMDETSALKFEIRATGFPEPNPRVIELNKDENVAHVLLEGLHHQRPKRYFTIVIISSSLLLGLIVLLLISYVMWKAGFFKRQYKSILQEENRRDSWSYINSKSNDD
T1 sequence (P05556 21-798): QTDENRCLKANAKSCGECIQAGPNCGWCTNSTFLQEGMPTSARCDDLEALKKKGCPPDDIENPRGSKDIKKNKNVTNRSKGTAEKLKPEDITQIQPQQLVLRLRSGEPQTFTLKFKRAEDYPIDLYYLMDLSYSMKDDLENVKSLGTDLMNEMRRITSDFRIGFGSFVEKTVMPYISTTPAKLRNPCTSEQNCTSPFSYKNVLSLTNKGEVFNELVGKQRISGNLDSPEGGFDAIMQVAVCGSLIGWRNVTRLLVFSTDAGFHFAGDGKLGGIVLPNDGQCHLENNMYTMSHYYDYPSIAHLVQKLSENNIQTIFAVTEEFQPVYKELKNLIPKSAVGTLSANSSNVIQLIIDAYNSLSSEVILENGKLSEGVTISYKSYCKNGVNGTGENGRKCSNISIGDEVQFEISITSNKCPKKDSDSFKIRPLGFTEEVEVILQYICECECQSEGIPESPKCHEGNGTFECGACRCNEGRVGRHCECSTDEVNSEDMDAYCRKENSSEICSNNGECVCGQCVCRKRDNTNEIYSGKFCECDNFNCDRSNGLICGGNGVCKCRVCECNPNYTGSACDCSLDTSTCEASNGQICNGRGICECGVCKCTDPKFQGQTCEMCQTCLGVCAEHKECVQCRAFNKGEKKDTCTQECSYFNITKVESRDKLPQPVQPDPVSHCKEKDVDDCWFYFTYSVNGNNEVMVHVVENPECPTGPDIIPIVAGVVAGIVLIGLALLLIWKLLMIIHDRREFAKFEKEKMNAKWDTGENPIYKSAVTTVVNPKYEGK
In words: Adhesion of calcein-labeled Ramos cells to CS1 (fibronectin) peptide conjugated ovalbumin. Conditions: Table 5; Ramos cell adhesion to CS1 conjugated ovalbumin; dose required to give 50% inhibition. In kind it is cell-based. An outline of the steps: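 Plates bearing CS1 fibronectin peptide coupled to ovalbumin (0.5 μg/ml coat, 3% BSA block) received calcein-labelled Ramos cells plus compound (100 μM stated) for 30 min at 37 °C. Buffer was TBS pH 7.5 with 1 mM Mg2+, Ca2+, Mn2+; bound cells quantified by fluorescence after lysis; […].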
Consider `COc1cccc(Cl)c1Cn1cccc(NC(=O)N[C@@H](CC(=O)O)c2ccc(C)cc2)c1=O` [(3S)-3-[({[1-(2-chloro-6-methoxybenzyl)-2-oxo-1,2-dihydropyridin-3-yl]amino}carbonyl)amino]-3-(4-methylphenyl)propanoic acid], for which the IC50 was 100 nM.

For `COc1cc(OC)cc([C@H](CC(=O)O)NC(=O)Nc2c(O)ccn(Cc3c(Cl)cccc3OC)c2=O)c1` [(3S)-3-[({[1-(2-chloro-6-methoxybenzyl)-4-hydroxy-2-oxo-1,2-dihydropyridin-3-yl]amino}carbonyl)amino]-3-(3,5-dimethoxyphenyl)propanoic acid], the IC50 was 1.5 nM.

As to `COc1cccc(Cl)c1Cn1ccc(O)c(NC(=O)N[C@@H](CC(=O)O)c2cccc(C)c2)c1=O` [(3S)-3-[({[1-(2-chloro-6-methoxybenzyl)-4-hydroxy-2-oxo-1,2-dihydropyridin-3-yl]amino}carbonyl)amino]-3-(3-methylphenyl)propanoic acid], the IC50 is 5 nM.

Take `COc1cccc(Cl)c1Cn1ccc(O)c(NC(=O)N[C@@H](CC(=O)O)c2ccc(C)cc2)c1=O` [(3S)-3-[({[1-(2-chloro-6-methoxybenzyl)-4-hydroxy-2-oxo-1,2-dihydropyridin-3-yl]amino}carbonyl)amino]-3-(4-methylphenyl)propanoic acid]: the IC50 was 3 nM.

In the case of `Cc1ccc([C@H](CC(=O)O)NC(=O)Nc2c(O)c(C)cn(Cc3c(C)cccc3Cl)c2=O)cc1` [(3S)-3-[({[1-(2-chloro-6-methylbenzyl)-4-hydroxy-5-methyl-2-oxo-1,2-dihydropyridin-3-yl]amino}carbonyl)amino]-3-(4-methylphenyl)propanoic acid], the IC50 was 10 nM.

The same test, now with this note: Table 6; Ramos cell adhesion to CS1 conjugated ovalbumin, 30 minutes at 37° C.
Consider `CCOc1cccc([C@H](CC(=O)O)NC(=O)Nc2c(O)ccn(Cc3c(Cl)cccc3OCC)c2=O)c1` [(3S)-3-[({[1-(2-chloro-6-ethoxybenzyl)-4-hydroxy-2-oxo-1,2-dihydropyridin-3-yl]amino}carbonyl)amino]-3-(3-ethoxyphenyl)propanoic acid], for which the IC50 was 3 nM.

In the case of `CCOc1cccc([C@H](CC(=O)O)NC(=O)Nc2c(O)c(C)cn(Cc3c(Cl)cccc3OCC)c2=O)c1` [(3S)-3-[({[1-(2-chloro-6-ethoxybenzyl)-4-hydroxy-5-methyl-2-oxo-1,2-dihydropyridin-3-yl]amino}carbonyl)amino]-3-(3-ethoxyphenyl)propanoic acid], the IC50 is 2 nM.

Take `CCOc1cccc(Cl)c1Cn1cc(C)c(O)c(NC(=O)N[C@@H](CC(=O)O)c2cccc(OC(C)C)c2)c1=O` [(3S)-3-[({[1-(2-chloro-6-ethoxybenzyl)-4-hydroxy-5-methyl-2-oxo-1,2-dihydropyridin-3-yl]amino}carbonyl)amino]-3-(3-isopropoxyphenyl)propanoic acid]: the half-maximal inhibitory concentration (IC50) was 4 nM.

For `CCOc1cccc(Cl)c1Cn1cc(C)c(O)c(NC(=O)N[C@@H](CC(=O)O)c2ccc(C)cc2)c1=O` [(3S)-3-[({[1-(2-chloro-6-ethoxybenzyl)-4-hydroxy-5-methyl-2-oxo-1,2-dihydropyridin-3-yl]amino}carbonyl)amino]-3-(4-methylphenyl)propanoic acid], the IC50 is 3 nM.

`CCOc1ccc([C@H](CC(=O)O)NC(=O)Nc2c(O)c(C)cn(Cc3c(Cl)cccc3OC)c2=O)cc1OCC` [(3S)-3-[({[1-(2-chloro-6-methoxybenzyl)-4-hydroxy-5-methyl-2-oxo-1,2-dihydropyridin-3-yl]amino}carbonyl)amino]-3-(3,4-diethoxyphenyl)propanoic acid]: the IC50 was 2 nM.

Consider `CCOc1cccc([C@H](CC(=O)O)NC(=O)Nc2c(O)c3c(n(Cc4c(C)cccc4Cl)c2=O)CCC3)c1` [(3S)-3-[({[1-(2-chloro-6-methylbenzyl)-4-hydroxy-2-oxo-2,5,6,7-tetrahydro-1H-cyclopenta[b]pyridin-3-yl]amino}carbonyl)amino]-3-(3-ethoxyphenyl)propanoic acid], for which the IC50 was 4 nM.

Staying with this test, now noted: Table 7; Ramos cell adhesion to CS1 conjugated ovalbumin; dose required to give 50% inhibition.
As for `CCOc1cccc(Cl)c1Cn1ccc(O)c(NC(=O)N[C@@H](CC(=O)O)c2cccc(OC(C)C)c2)c1=O` [(3S)-3-[({[1-(2-chloro-6-ethoxybenzyl)-4-hydroxy-2-oxo-1,2-dihydropyridin-3-yl]amino}carbonyl)amino]-3-(3-isopropoxyphenyl)propanoic acid], the IC50 was 3 nM.

Turning to `CCOc1cc(OCC)cc([C@H](CC(=O)O)NC(=O)Nc2c(O)c3c(n(Cc4c(Cl)cccc4OCC)c2=O)CCC3)c1` [(3S)-3-[({[1-(2-chloro-6-ethoxybenzyl)-4-hydroxy-2-oxo-2,5,6,7-tetrahydro-1H-cyclopenta[b]pyridin-3-yl]amino}carbonyl)amino]-3-(3,5-diethoxyphenyl)propanoic acid], the IC50 is 3 nM.

Take `CCCOc1cccc([C@H](CC(=O)O)NC(=O)Nc2c(O)c3c(n(Cc4c(Cl)cccc4OCC)c2=O)CCC3)c1` [(3S)-3-[({[1-(2-chloro-6-ethoxybenzyl)-4-hydroxy-2-oxo-2,5,6,7-tetrahydro-1H-cyclopenta[b]pyridin-3-yl]amino}carbonyl)amino]-3-(3-propoxyphenyl)propanoic acid]: the IC50 is 3 nM.

Turning to `CCOc1cccc(Cl)c1Cn1c2c(c(O)c(NC(=O)N[C@@H](CC(=O)O)c3cccc(OCC4CC4)c3)c1=O)CCC2` [(3S)-3-[({[1-(2-chloro-6-ethoxybenzyl)-4-hydroxy-2-oxo-2,5,6,7-tetrahydro-1H-cyclopenta[b]pyridin-3-yl]amino}carbonyl)amino]-3-[3-(cyclopropylmethoxy)phenyl]propanoic acid], the IC50 is 4 nM.

Regarding `CCOc1cccc(Cl)c1Cn1c2c(c(O)c(NC(=O)N[C@@H](CC(=O)O)c3cccc(OC4CC4)c3)c1=O)CCC2` [(3S)-3-[({[1-(2-chloro-6-ethoxybenzyl)-4-hydroxy-2-oxo-2,5,6,7-tetrahydro-1H-cyclopenta[b]pyridin-3-yl]amino}carbonyl)amino]-3-[3-(cyclopropyloxy)phenyl]propanoic acid], the IC50 is 2 nM.

As for `CCOc1cccc(Cl)c1Cn1c2c(c(O)c(NC(=O)N[C@@H](CC(=O)O)c3ccccc3)c1=O)CCC2` [(3S)-3-[({[1-(2-chloro-6-ethoxybenzyl)-4-hydroxy-2-oxo-2,5,6,7-tetrahydro-1H-cyclopenta[b]pyridin-3-yl]amino}carbonyl)amino]-3-phenylpropanoic acid], the IC50 was 2 nM.

In the case of `CCOc1cccc(Cl)c1Cn1c(C)c(C)c(O)c(NC(=O)N[C@@H](CC(=O)O)c2cccc(OC(C)C)c2)c1=O` [(3S)-3-[({[1-(2-chloro-6-ethoxybenzyl)-4-hydroxy-5,6-dimethyl-2-oxo-1,2-dihydropyridin-3-yl]amino}carbonyl)amino]-3-(3-isopropoxyphenyl)propanoic acid], the IC50 was 3 nM.

With `CCOc1cccc(Cl)c1Cn1cc(C)c(O)c(NC(=O)N[C@@H](CC(=O)O)c2ccc3c(ccn3C)c2)c1=O` [(3S)-3-[({[1-(2-chloro-6-ethoxybenzyl)-4-hydroxy-5-methyl-2-oxo-1,2-dihydropyridin-3-yl]amino}carbonyl)amino]-3-(1-methyl-1H-indol-5-yl)propanoic acid], the IC50 is 3 nM.

With `CCOc1cccc(Cl)c1Cn1cc(C)c(O)c(NC(=O)N[C@@H](CC(=O)O)c2ccc3ccn(C)c3c2)c1=O` [(3S)-3-[({[1-(2-chloro-6-ethoxybenzyl)-4-hydroxy-5-methyl-2-oxo-1,2-dihydropyridin-3-yl]amino}carbonyl)amino]-3-(1-methyl-1H-indol-6-yl)propanoic acid], the IC50 was 3 nM.

With `CCOc1cccc(Cl)c1Cn1cc(C)c(O)c(NC(=O)N[C@@H](CC(=O)O)c2ccc3c(c2)CCO3)c1=O` [(3S)-3-[({[1-(2-chloro-6-ethoxybenzyl)-4-hydroxy-5-methyl-2-oxo-1,2-dihydropyridin-3-yl]amino}carbonyl)amino]-3-(2,3-dihydro-1-benzofuran-5-yl)propanoic acid], the IC50 is 2 nM.

As for `CCOc1cccc(Cl)c1Cn1cc(C)c(O)c(NC(=O)N[C@@H](CC(=O)O)c2ccc3cc(OC)ccc3c2)c1=O` [(3S)-3-[({[1-(2-chloro-6-ethoxybenzyl)-4-hydroxy-5-methyl-2-oxo-1,2-dihydropyridin-3-yl]amino}carbonyl)amino]-3-(6-methoxy-2-naphthyl)propanoic acid], the IC50 is 3 nM.

With `CCOc1cccc(Cl)c1Cn1cc(C)c(O)c(NC(=O)N[C@@H](CC(=O)O)c2cccc(OC(F)(F)F)c2)c1=O` [(3S)-3-[({[1-(2-chloro-6-ethoxybenzyl)-4-hydroxy-5-methyl-2-oxo-1,2-dihydropyridin-3-yl]amino}carbonyl)amino]-3-[3-(trifluoromethoxy)phenyl]propanoic acid], the concentration for half-maximal inhibition (IC50) is 4 nM.

With `CCOc1cccc(Cl)c1Cn1c(C)cc(O)c(NC(=O)N[C@@H](CC(=O)O)c2cccc(OC(C)C)c2)c1=O` [(3S)-3-[({[1-(2-chloro-6-ethoxybenzyl)-4-hydroxy-6-methyl-2-oxo-1,2-dihydropyridin-3-yl]amino}carbonyl)amino]-3-(3-isopropoxyphenyl)propanoic acid], the IC50 was 3 nM.

With `CCOc1cccc(Cl)c1Cn1cc(C2CC2)c(O)c(NC(=O)N[C@@H](CC(=O)O)c2cccc(OC(C)C)c2)c1=O` [(3S)-3-[({[1-(2-chloro-6-ethoxybenzyl)-5-cyclopropyl-4-hydroxy-2-oxo-1,2-dihydropyridin-3-yl]amino}carbonyl)amino]-3-(3-isopropoxyphenyl)propanoic acid], the IC50 was 3 nM.

For `CCOc1cccc(Cl)c1Cn1cc(C2CC2)c(O)c(NC(=O)N[C@@H](CC(=O)O)c2ccc(C)cc2)c1=O` [(3S)-3-[({[1-(2-chloro-6-ethoxybenzyl)-5-cyclopropyl-4-hydroxy-2-oxo-1,2-dihydropyridin-3-yl]amino}carbonyl)amino]-3-(4-methylphenyl)propanoic acid], the IC50 is 3 nM.

The record behind these values is US6972296B2, “Carboxylic acid derivatives that inhibit the binding of integrins to their receptors” (Encysive Pharmaceuticals Inc., priority 1999, dated 2005).
